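Interpolation was linear, between the two tested concentrations surrounding the appropriate level; five concentrations were tested over 48 hours in 96-well plates. GI50: concentration for 50% inhibition of growth.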 Active and inactive are the calls of the source. No stated cut-off is given here; in the data, active = GI50 up to about 1.1 µM and inactive = higher. Numbered stars: 1 amine (or outer) side, 2 acyl side, 3 side chain; on linkers, the order of the positions; unused ones are H or OH. Square brackets hold non-standard residues; d marks the D form. Peptide text beside a SMILES is read from it. X55 = CC[C@H](C)[C@H](OC(=O)[C@@H](C)[C@@H](CC)N[*:1])C(=O)[*:2]; X31 = C[C@H](N[*:1])C(=O)C(C)(C)C(=O)[*:2]; NMeY = CN[C@@H](Cc1ccc(O)cc1)C(=O)O; NMeL = CN[C@@H](CC(C)C)C(=O)O; NMeV = CN[C@H](C(=O)O)C(C)C
How the values were obtained:
Assay in all cases: NCI anticancer screen, dose series, 48 h
[1] = tested on: DMS-114
[2] = tested on: DMS-273
[3] = tested on: LXFL 529
[4] = tested on: M19-MEL
[5] = tested on: SNB-78
[6] = tested on: XF498
[7] = tested on: DLD-1
[8] = tested on: HOP-18
[9] = tested on: RXF 631

Row | Structure (SMILES) | GI50 [1] | GI50 [2] | GI50 [3] | GI50 [4] | GI50 [5] | GI50 [6] | GI50 [7] | GI50 [8] | GI50 [9]
1 | CCN(CC)c1ccc(C(=O)c2ccccc2C(=O)O)c(O)c1 | > 100 µM (inactive) | > 100 µM (inactive) | > 100 µM (inactive) | > 100 µM (inactive) | > 100 µM (inactive) | > 100 µM (inactive) |  |  | 
2 | S=C(Nc1ccccc1)N1N=C2c3ccccc3CC[C@H]2[C@@H]1c1ccccc1 | 2.29 µM (inactive) |  | 5.52 µM (inactive) | 1.83 µM (inactive) | 0.708 µM (active) | > 100 µM (inactive) | 9.42 µM (inactive) | 6.21 µM (inactive) | 
3 | C/C(CCc1ccccc1)=N\NC(N)=S | 39 µM (inactive) | > 100 µM (inactive) | 43 µM (inactive) | 74.8 µM (inactive) | > 100 µM (inactive) | 43.4 µM (inactive) | > 100 µM (inactive) | > 100 µM (inactive) | > 100 µM (inactive)
4 | CCCCOC(=O)CNC(=O)OCCCCC#CC#CCCCCOC(=O)NCC(=O)OCCCC | > 100 µM (inactive) | > 100 µM (inactive) | > 100 µM (inactive) | > 100 µM (inactive) | > 100 µM (inactive) | > 100 µM (inactive) | > 100 µM (inactive) | 69.8 µM (inactive) | 
5 | CCOc1ccccc1NC(=O)CCC(=O)OC | > 61.1 µM (inactive) | > 100 µM (inactive) | > 100 µM (inactive) | > 100 µM (inactive) | > 100 µM (inactive) | > 100 µM (inactive) | > 83 µM (inactive) | > 100 µM (inactive) | 
6 | C/C=C/C1(C)/C(=N\O)C(C)(CCC)C(=O)N1O (stereo unspecified) | > 100 µM (inactive) | > 100 µM (inactive) | > 100 µM (inactive) | > 100 µM (inactive) | > 100 µM (inactive) | > 100 µM (inactive) | > 100 µM (inactive) |  | 
7 | N#C/C(=C\c1ccccc1)C(NO)Nc1ccccc1 (stereo unspecified) |  | > 100 µM (inactive) | 60.3 µM (inactive) | > 100 µM (inactive) | 83.2 µM (inactive) |  | > 100 µM (inactive) | > 100 µM (inactive) | 
8 | Nc1nc(Cl)cc(NCCCCCCNc2cc(Cl)nc(N)n2)n1 |  | > 100 µM (inactive) | 32.7 µM (inactive) | > 100 µM (inactive) |  | 30.6 µM (inactive) | > 100 µM (inactive) | > 100 µM (inactive) | > 100 µM (inactive)
9 | NC(=O)N/N=C1/CCCC/C1=C\c1ccccc1 | > 100 µM (inactive) | > 100 µM (inactive) | > 100 µM (inactive) | > 100 µM (inactive) | > 100 µM (inactive) |  | > 100 µM (inactive) | > 100 µM (inactive) | > 100 µM (inactive)
10 | O=C(Nc1ccc(Cl)c(Cl)c1)C(=O)C(C(=O)c1ccccc1-c1ccccc1)C1OC(=O)c2ccccc21 (stereo unspecified) | 12.1 µM (inactive) |  | 8.81 µM (inactive) | 13.1 µM (inactive) | 10.4 µM (inactive) | 12.8 µM (inactive) | 14.8 µM (inactive) |  | 14.3 µM (inactive)
11 | C#Cc1cc(CN(CC(=O)OC(C)(C)C)CC(=O)OC(C)(C)C)nc(CN(CC(=O)OC(C)(C)C)CC(=O)OC(C)(C)C)c1 | 3.26 µM (inactive) | 5.89 µM (inactive) | 3.46 µM (inactive) | 6.4 µM (inactive) | 6.14 µM (inactive) | 11.6 µM (inactive) |  |  | 11.9 µM (inactive)
12 | O=C1[C@@H]2C(c3ccc(Cl)cc3Cl)=NO[C@@H]2C(=O)N1c1ccc(Cc2ccc(N3C(=O)[C@H]4C(c5ccc(Cl)cc5Cl)=NO[C@H]4C3=O)cc2)cc1 | 39.5 µM (inactive) | > 100 µM (inactive) | 15.6 µM (inactive) | > 100 µM (inactive) | 46.8 µM (inactive) | > 100 µM (inactive) | > 100 µM (inactive) | > 100 µM (inactive) | 
13 | C/C(CC(=O)Nc1cccc(Cl)c1C)=N\NC(N)=S |  |  | > 100 µM (inactive) | > 100 µM (inactive) | > 100 µM (inactive) | > 100 µM (inactive) | > 100 µM (inactive) |  | > 100 µM (inactive)
14 | Cc1cc(C)nc(NS(=O)(=O)c2ccc(Nc3c4ccccc4nc4c(C(=O)Nc5ccc(S(=O)(=O)N=C(N)N)cc5)ccc(Cl)c34)cc2)n1 | 21.7 µM (inactive) | 32.1 µM (inactive) | 25.8 µM (inactive) | 26 µM (inactive) | 33.7 µM (inactive) | 24 µM (inactive) | 33.1 µM (inactive) | 18.7 µM (inactive) | 
15 | Cc1cc2c(c3c1c1ccccc1n3C)C(=O)c1ccccc1C2=O | > 100 µM (inactive) | > 100 µM (inactive) | > 100 µM (inactive) | > 100 µM (inactive) | > 100 µM (inactive) | 60.1 µM (inactive) | > 100 µM (inactive) |  | > 100 µM (inactive)
16 | CC1=NN(C(=O)c2ccc(Cl)cc2)C(=O)/C1=C/c1ccco1 | > 100 µM (inactive) |  | > 100 µM (inactive) | > 100 µM (inactive) | 46.1 µM (inactive) | > 100 µM (inactive) | > 100 µM (inactive) |  | 
17 | COc1ccc(C2CCC(Cl)(OC)CC2C=O)cc1 (stereo unspecified) | 27.5 µM (inactive) | 53.7 µM (inactive) | > 100 µM (inactive) | 32.1 µM (inactive) |  |  | 91.4 µM (inactive) | 68.9 µM (inactive) | 
18 | Cc1ccccc1CN1CC=c2ccccc2=N1 | > 100 µM (inactive) | > 100 µM (inactive) |  | > 100 µM (inactive) | > 100 µM (inactive) | 68.1 µM (inactive) | > 100 µM (inactive) | > 100 µM (inactive) | > 100 µM (inactive)
19 | CC(C)(C)N/N=N/c1cn(C2OC(CO)C(O)C2O)c(=O)[nH]c1=O (stereo unspecified) | 40.3 µM (inactive) | > 100 µM (inactive) | > 100 µM (inactive) | > 100 µM (inactive) | > 100 µM (inactive) |  | 43.3 µM (inactive) | > 100 µM (inactive) | 
20 | COC(=O)C(CCC1(C)OCCO1)C(C)=O (stereo unspecified) | > 100 µM (inactive) | > 100 µM (inactive) | > 100 µM (inactive) | > 100 µM (inactive) | > 100 µM (inactive) | > 100 µM (inactive) | > 100 µM (inactive) | > 100 µM (inactive) | > 100 µM (inactive)
21 | CCCCCCCCCCCCCS(=O)(=O)O | > 100 µM (inactive) |  | > 100 µM (inactive) | > 100 µM (inactive) | > 100 µM (inactive) | > 100 µM (inactive) | > 100 µM (inactive) | 3.08 µM (inactive) | > 100 µM (inactive)
22 | O=C1C=CC(=CC=C2C=CN(CCCCCCCCCCC(=O)NCCCCCCCCCCCC(=O)O)C=C2)C=C1 | > 100 µM (inactive) | > 100 µM (inactive) | > 100 µM (inactive) | > 100 µM (inactive) | > 100 µM (inactive) | > 100 µM (inactive) | > 100 µM (inactive) |  | > 100 µM (inactive)
23 | CN1CCS(=O)(=O)NC(Cc2ccccc2)C(=O)N2CCCC2C1=O (stereo unspecified) | > 100 µM (inactive) | > 100 µM (inactive) | > 100 µM (inactive) | > 100 µM (inactive) | > 100 µM (inactive) | > 100 µM (inactive) | > 100 µM (inactive) | > 100 µM (inactive) | 
24 | CC1C[C@H](OC(N)=O)C(C)CC1=O (stereo partly specified) | > 100 µM (inactive) | > 100 µM (inactive) | > 100 µM (inactive) | > 100 µM (inactive) | > 100 µM (inactive) | > 100 µM (inactive) | > 100 µM (inactive) | > 100 µM (inactive) | 
25 | COc1cc(CCc2ccc(OC(C)=O)cc2)cc(OC)c1OC | 55 µM (inactive) | > 100 µM (inactive) | > 100 µM (inactive) | > 100 µM (inactive) | > 100 µM (inactive) |  | > 100 µM (inactive) | > 100 µM (inactive) | 
26 | Oc1cc(-c2ccccc2)nc2cc3c(cc12)OCO3 |  | 11.7 µM (inactive) | 1.82 µM (inactive) | 3.21 µM (inactive) | 3.72 µM (inactive) | 26.9 µM (inactive) | 6.56 µM (inactive) | > 100 µM (inactive) | 2.9 µM (inactive)
27 | CC[C@H](C)[C@@H]1OC(=O)[C@@H](C)[C@@H](CC)NC(=O)[C@H](C)NC(=O)C(C)(C)C(=O)[C@H](C)NC(=O)[C@H](Cc2ccc(OC)cc2)N(C)C(=O)[C@H](C(C)C)N(C)C(=O)CNC(=O)[C@H](CC(C)C)N(C)C(=O)CNC1=O [DOLASTATIN 11] (cyclo(A[X55]G[NMeL]G[NMeV][NMeY](Me)[X31])) | < 0.0203 µM (active) | 0.01 µM (active) | < 0.0166 µM (active) | 0.344 µM (active) | 0.0514 µM (active) | 0.0248 µM (active) | < 0.0361 µM (active) | < 0.0118 µM (active) | 
